Assay [1] addresses ligand binding domain of human FXR (Homo sapiens (Human), UniProt Q96RI1). In words: FXR ligand binding assay (LanthaScreen TR-FRET, SRC2-2 peptide recruitment). The following applies: for pEC50: -log EC50, concentration required to produce 50% activation; for Emax: read-out: % Efficacy. On the technique in general: In TR-FRET formats the signal depends on donor and acceptor labels being close together.

The target of assay [2] is human Farnesoid X receptor ligand-binding domain/Gal4 DNA binding domain chimera (Homo sapiens (Human), UniProt Q96RI1). In words: Cell-based assay of FXR activation (FXR-UAS-bla HEK 293T beta-lactamase reporter). The following applies: cellular FXR beta-lactamase reporter assay; for Emax: HEK-293T, extent of activation relative to GW4064, read-out: % Efficacy; for EC50: FXR-UAS-bla HEK 293T cells, 16 h, pEC50 = -log EC50. In a few lines: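 HEK 293T cells stably expressing a Gal4-fused human FXR LBD and a UAS-driven beta-lactamase reporter were incubated with serially diluted compounds for 16 h at 37 °C in phenol red-free DMEM with 2% charcoal-stripped FBS. CCF4 FRET read-out: excitation 409 nm, emission 447 nm. pEC50 comes from a 3-parameter logistic fit, and efficacy is given as % of GW4064.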
Sequence of human Farnesoid X receptor ligand-binding domain/Gal4 DNA binding domain chimera (Q96RI1 262-486, change not shown): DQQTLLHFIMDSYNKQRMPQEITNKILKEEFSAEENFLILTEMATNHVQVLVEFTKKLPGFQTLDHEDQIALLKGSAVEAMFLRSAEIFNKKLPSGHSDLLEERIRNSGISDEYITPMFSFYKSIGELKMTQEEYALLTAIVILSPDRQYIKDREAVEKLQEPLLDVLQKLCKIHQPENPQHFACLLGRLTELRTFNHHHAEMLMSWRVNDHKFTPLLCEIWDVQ
Sequence of human Farnesoid X receptor ligand-binding domain/Gal4 DNA binding domain chimera (P04386 1-147 partner): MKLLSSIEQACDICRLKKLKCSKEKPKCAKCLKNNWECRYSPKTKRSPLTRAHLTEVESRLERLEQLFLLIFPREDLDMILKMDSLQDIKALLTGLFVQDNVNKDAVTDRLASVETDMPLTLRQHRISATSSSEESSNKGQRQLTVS

Where [3] appears, read: extent of activation relative to GW4064.

Read-outs that look alike come from different tables or passages of the source.

Sequence of ligand binding domain of human FXR (Q96RI1 262-486): as the sequence (Q96RI1 262-486, change not shown) above

Usually pEC50 stands for the EC50 on a negative log10 scale, so that one unit is a factor of ten. Read a low pEC50 as a high EC50. A word on the EC50: it is the concentration at which the effect is half-maximal. With `O=C(O)c1cc(F)c2nc(N3C[C@@H]4C[C@H]3C[C@H]4OC(=O)c3c(C45CCC(CC4)CC5)noc3C3CC3)sc2c1` [Compound I-11, 2-[(1S,4S,5R)-5-(3-{bicyclo[2.2.2]octan-1-yl}-5-cyclopropyl-1,2-oxazole-4-carbonyloxy)-2-azabicyclo[2.2.1]heptan-2-yl]-4-fluoro-1,3-benzothiazole-6-carboxylic Acid], in assay [1], the pEC50 was determined as 7.7. For the same compound, the Emax in assay [1] (setting [3]) was 15%; in assay [2], 28%. This compound also showed a concentration giving a half-maximal response (EC50) in assay [2] of 251 nM.
For `O=C(O)c1ccc(N2C[C@@H]3C[C@H]2C[C@H]3OC(=O)c2c(-c3c(Cl)cccc3Cl)noc2C2CC2)cc1` [Compound I-42, 4-[(1S,4S,5R)-5-[5-cyclopropyl-3-(2,6-dichlorophenyl)-1,2-oxazole-4-carbonyloxy]-2-azabicyclo[2.2.1]heptan-2-yl]benzoic Acid] the same measures were 7.6, 166%, 110% and 39.8 nM.
In assay [1], `O=C(O)c1cc(C2CCOCC2)c2nc(N3C[C@@H]4C[C@H]3C[C@H]4OCc3c(-c4c(Cl)cccc4Cl)noc3C3CC3)sc2c1` [Compound I-254, 2-[(1S,4S,5R)-5-{[5-cyclopropyl-3-(2,6-dichlorophenyl)-1,2-oxazol-4-yl]methoxy}-2-azabicyclo[2.2.1]heptan-2-yl]-4-(oxan-4-yl)-1,3-benzothiazole-6-carboxylic Acid] had a pEC50 of 9. In addition, the Emax came out at 143% in assay [1] (setting [3]) and 106% in assay [2]. The EC50 in assay [2] is 0.316 nM.
On to `O=C(O)CCCc1ccc(N2C[C@@H]3C[C@H]2C[C@H]3OCc2c(-c3c(Cl)cccc3Cl)noc2C2CC2)c(F)c1` [Compound I-157, 4-{4-[(1S,4S,5R)-5-{[5-cyclopropyl-3-(2,6-dichlorophenyl)-1,2-oxazol-4-yl]methoxy}-2-azabicyclo[2.2.1]heptan-2-yl]-3-fluorophenyl}butanoic Acid], for which the pEC50 in assay [1] came to 8.2. In assay [1] (setting [3]), the Emax is 134%. For the same compound, in assay [2], the Emax was 100% and the EC50 is 2.51 nM.
Consider `O=C(O)c1cc(C2CCOCC2)c2nc(N3C[C@@H]4C[C@H]3C[C@H]4OCc3c(-c4c(F)cccc4Cl)noc3C3CC3)sc2c1` [Compound I-264, 2-((1S,4S,5R)-5-((3-(2-chloro-6-fluorophenyl)-5-cyclopropylisoxazol-4-yl)methoxy)-2-azabicyclo[2.2.1]heptan-2-yl)-4-(tetrahydro-2H-pyran-4-yl)benzo[d]thiazole-6-carboxylic acid], for which the pEC50 in assay [1] turned out to be 8.5. The values for the Emax in assay [1] (setting [3]) and in assay [2] were 142% and 105%, respectively. In addition, the EC50 in assay [2] was 0.631 nM.
`Cc1cccc(Cl)c1-c1noc(C2CC2)c1CO[C@@H]1C[C@@H]2C[C@H]1CN2c1ccc(C(=O)O)cc1` [Compound I-114, 4-[(1S,4S,5R)-5-{[3-(2-chloro-6-methylphenyl)-5-cyclopropyl-1,2-oxazol-4-yl]methoxy}-2-azabicyclo[2.2.1]heptan-2-yl]-benzoic Acid]: the Emax in assay [1] (setting [3]) amounted to 124%. In assay [2], the Emax turned out to be 103% and the EC50 is 2.51 nM.
As to `O=C(O)c1ccc(N2C[C@@H]3C[C@H]2C[C@H]3OCc2c(C3CCC4(CC3)CC4)noc2C2CC2)c(F)c1` [Compound I-126, 4-[(1S,4S,5R)-5-[(5-cyclopropyl-3-{spiro[2.5]octan-6-yl}-1,2-oxazol-4-yl)methoxy]-2-azabicyclo[2.2.1]heptan-2-yl]-3-fluorobenzoic Acid], the Emax in assay [1] worked out at 114%. Moreover, in assay [2], the Emax came to 106% and the EC50 is 39.8 nM.
In assay [1], `O=C(NS(=O)(=O)C1CC1)c1ccc(N2C(=O)[C@@H]3C[C@H]2C[C@H]3OCc2c(-c3c(Cl)cccc3Cl)noc2C2CC2)cc1` [Compound I-337, 4-((1S,4R,5R)-5-((5-cyclopropyl-3-(2,6-dichlorophenyl)isoxazol-4-yl)methoxy)-3-oxo-2-azabicyclo[2.2.1]heptan-2-yl)-N-(cyclopropylsulfonyl)benzamide] displayed a pEC50 of 8.6. Besides, the Emax in assay [1] (setting [3]) was 174%. Further, in assay [2], the Emax is 110% and a half-maximal response (EC50) required 2 nM.
Turning to `CC(C)CCS(=O)(=O)NC(=O)c1ccc(N2C[C@@H]3C[C@H]2C[C@H]3OCc2c(-c3c(Cl)cccc3Cl)noc2C2CC2)c(F)c1` [Compound I-190, 4-((1S,4S,5R)-5-((5-cyclopropyl-3-(2,6-dichlorophenyl)isoxazol-4-yl)methoxy)-2-azabicyclo[2.2.1]heptan-2-yl)-3-fluoro-N-(isopentylsulfonyl)benzamide], in assay [1], the pEC50 stood at 8.4. Besides, the Emax in assay [1] (setting [3]) was determined as 163%. In addition, in assay [2], the Emax came out at 113% and the midpoint of the response, the EC50, lay at 0.0631 nM.
`O=C(NS(=O)(=O)C1CC1)c1cc(F)c2nc(N3C[C@@H]4C[C@H]3C[C@H]4OC(=O)c3c(-c4c(Cl)cccc4Cl)noc3C3CC3)sc2c1` [Compound I-33, (1S,4S,5R)-2-{6-[(cyclopropanesulfonyl)carbamoyl]-4-fluoro-1,3-benzothiazol-2-yl}-2-azabicyclo[2.2.1]heptan-5-yl 5-cyclopropyl-3-(2,6-dichlorophenyl)-1,2-oxazole-4-carboxylate] came in with a pEC50 in assay [1] of 7.6. Further, in assay [1] (setting [3]), the Emax came to 136%. In addition, in assay [2], the Emax is 112% and the EC50 is 126 nM.
As to `Cc1cc(C(=O)O)ccc1N1C(=O)[C@@H]2C[C@H]1C[C@H]2OCc1c(-c2c(Cl)cccc2Cl)noc1C1CC1` [Compound I-317, 4-[(1S,4R,5R)-5-{[5-cyclopropyl-3-(2,6-dichlorophenyl)-1,2-oxazol-4-yl]methoxy}-3-oxo-2-azabicyclo[2.2.1]heptan-2-yl]-3-methylbenzoic Acid], the pEC50 in assay [1] turned out to be 6.7. The Emax in assay [1] (setting [3]) was 131%. In assay [2], the Emax came to 126% and the EC50 is 100 nM.
On to `O=C(NS(=O)(=O)CC1CCOC1)c1ccc(N2C(=O)[C@@H]3C[C@H]2C[C@H]3OCc2c(-c3c(Cl)cccc3Cl)noc2C2CC2)cc1F` (stereo partly drawn) [Compound I-335, 4-((1S,4R,5R)-5-((5-cyclopropyl-3-(2,6-dichlorophenyl)isoxazol-4-yl)methoxy)-3-oxo-2-azabicyclo[2.2.1]heptan-2-yl)-2-fluoro-N-(((tetrahydrofuran-3-yl)methyl)sulfonyl)benzamide], for which, in assay [1], the negative logarithm of the EC50 (pEC50) is listed as 8.8. The Emax in assay [1] (setting [3]) is 172%. In assay [2], the Emax was found to be 108% and the EC50 is 1 nM.
Compound `CCCS(=O)(=O)NC(=O)c1ccc(N2C[C@@H]3C[C@H]2C[C@H]3OC(=O)c2c(-c3c(Cl)cccc3Cl)noc2C2CC2)cc1` [Compound I-46, (1S,4S,5R)-2-{4-[(propane-1-sulfonyl)carbamoyl]phenyl}-2-azabicyclo[2.2.1]heptan-5-yl 5-cyclopropyl-3-(2,6-dichlorophenyl)-1,2-oxazole-4-carboxylate] yielded a pEC50 in assay [1] of 7.9. For the same compound, the Emax in assay [1] (setting [3]) was determined as 174%. In assay [2], the Emax stood at 110% and the response was half-maximal at 12.6 nM (EC50).
In the same order, the values of `O=C(O)c1cc(OC(F)(F)F)c2nc(N3C[C@@H]4C[C@H]3C[C@H]4OCc3c(-c4c(Cl)cccc4Cl)noc3C3CC3)sc2c1` [Compound I-16] are 8.8, 174%, 109% and 0.0398 nM.

Values taken from patent US10793568B2, “Hormone receptor modulators for treating metabolic conditions and disorders” (ARDELYX, INC., priority 2016, dated 2020).
